How the values were obtained:
Type in all cases: cell-based
GSPT1 (eRF3a) = target: T1, GSPT1 (eRF3a) (Homo sapiens, UniProt P15170+Q96SW2); experiment: Western blot assay in HepG2 cells: GSPT1 (eRF3a); details: different concentrations at 24 h (FIG. 10)
T1 construct: The downregulation of SRD5A3 and GSPT1 (eRF3a) proteins in PC-3 and HepG2 cells by C59; endogenous in cells; host or cells: 22Rv1, PC-3, HepG2
Description: Example 84: Western Blot Assay of Compound C59 in 22Rv1, PC-3, and HepG2 Cells
(1) Materials: 22Rv1, PC-3, and HepG2 cell, anti-SRD5A1 antibody (ab167606), anti-SRD5A2 antibody (ab124877), anti-SRD5A3 antibody (PA5-107029), anti-androgen receptor (AR) antibody (CST, No. 5153), anti-GSPT1 antibody (Abcam, ab234433), anti-GADPH antibody (CST, No. 5174), anti-c-Myc antibody (CST, No. 8583), anti-α-tublin antibody (CST, No. 2125), anti-rabbit IgG, HRP-linked antibody (CST, No. 7074), electrophoresis device and membrane transfer device (LIUYI, BEIJING; DYCZ-24DN)
Cell seeding: 22Rv1 (Cell Bank of the Chinese Academy of Sciences, TCHu100), PC-3 (Cell Bank of the Chinese Academy of Sciences, SCSP-532) and HepG2 cells (Cell Bank of the Chinese Academy of Sciences, TCHu72) were subcultured and trypsinized to prepare 6×10^5 cells/mL suspensions, seeded on 6-well plates (3 mL/well), and cultured overnight in a cell incubator at 5% CO2 and 37° C. […]
Protein quantification: The protein was quantified using a BCA protein quantification kit. […]
Western immunoblot assay (or Western blot, WB): SDS-PAGE gel at a proper concentration was prepared according to the molecular weight of the target protein: for example, the concentration of the separation gel was 8% and the concentration of the stacking gel was 5%. The loading volume was adjusted according to the protein quantification results. […]

C-33 A cells = experiment: Anti-proliferative toxicity of C63 in tumor cell lines (CCK8): C-33 A; details: Homo sapiens, 72 h, 3 days, read-out: Inhibition rate
Experimental: (§1) Example 83: Detection of Anti-Proliferative Toxicity of C63 in Some Tumor Cell Lines
C-33 A cells (purchased from the Cell Bank of the Chinese Academy of Sciences, Cat. No. TCHu176) were subcultured in a culture medium (MEM medium+1% penicillin-streptomycin dual-antibiotic solution+10% fetal bovine serum) in an incubator at 5% carbon dioxide and 37° C.
C-33 A cells were seeded at 5000 cells/well (90 μL) on a 96-well plate and cultured for 24 h.
(§2) 10 mM compound stock solutions were prepared in DMSO.
(§3) The compound stock solution was diluted with DMSO to give DMSO solutions 1-9 at concentrations of 0 μM, 2500 μM, 500 μM, 100 μM, 20 μM, 4 μM, 0.8 μM, 0.16 μM, and 0.032 μM.
(§4) 2 μL of each of solutions 1-9 was added to 98 μL of the medium to give mixed solutions 11-19 of the compound and the medium.
(§5) 10 μL of each of solutions 11-19 was added to the above cell seed solution to give a total volume of 100 μL (90 μL+10 μL).
(§6) The concentrations of the compound in the wells were 0 μM, 5.0 μM, 1.0 μM, 0.2 μM, 0.04 μM, 0.008 μM, 0.0016 μM, 0.00032 μM, and 0.000064 μM. All concentrations were in triplicate.
(§7) After the above-treated cells were cultured for 3 days, 10 μL of the CCK8 solution (DOJINDO, Cat. No. PF725) was added to each well. The plate was incubated in an incubator at 37° C. for 1-4 h and then detected on a microplate reader for the reading at 450 nm.

SNU-1 cells = experiment: Anti-proliferative toxicity of C63 in tumor cell lines (CCK8): SNU-1; details: Homo sapiens, SNU1, 72 h, 3 days, read-out: Inhibition rate
Experimental: as §1
SNU-1 cells (purchased from the Cell Bank of the Chinese Academy of Sciences, Cat. No. TCHu230) were subcultured in a culture medium (RPMI-1640 medium+1% penicillin-streptomycin dual-antibiotic solution+10% fetal bovine serum) in an incubator at 5% carbon dioxide and 37° C.
SNU-1 cells were seeded at 5000 cells/well (90 μL) on a 96-well plate and cultured for 24 h.
as §2, §3, §4, §5, §6, §7

DLD-1 cells = experiment: Anti-proliferative toxicity of C63 in tumor cell lines (CCK8): DLD-1; details: Homo sapiens, 72 h, 3 days, read-out: Inhibition rate
Experimental: as §1
DLD-1 cells (purchased from the Cell Bank of the Chinese Academy of Sciences, Cat. No. TCHu134) were subcultured in a culture medium (RPMI-1640 medium+1% penicillin-streptomycin dual-antibiotic solution+10% fetal bovine serum) in an incubator at 5% carbon dioxide and 37° C.
DLD-1 cells were seeded at 2000 cells/well (90 μL) on a 96-well plate and cultured for 24 h.
as §2, §3, §4, §5, §6, §7

T1 sequence (P15170 1-637 isoform P15170-3): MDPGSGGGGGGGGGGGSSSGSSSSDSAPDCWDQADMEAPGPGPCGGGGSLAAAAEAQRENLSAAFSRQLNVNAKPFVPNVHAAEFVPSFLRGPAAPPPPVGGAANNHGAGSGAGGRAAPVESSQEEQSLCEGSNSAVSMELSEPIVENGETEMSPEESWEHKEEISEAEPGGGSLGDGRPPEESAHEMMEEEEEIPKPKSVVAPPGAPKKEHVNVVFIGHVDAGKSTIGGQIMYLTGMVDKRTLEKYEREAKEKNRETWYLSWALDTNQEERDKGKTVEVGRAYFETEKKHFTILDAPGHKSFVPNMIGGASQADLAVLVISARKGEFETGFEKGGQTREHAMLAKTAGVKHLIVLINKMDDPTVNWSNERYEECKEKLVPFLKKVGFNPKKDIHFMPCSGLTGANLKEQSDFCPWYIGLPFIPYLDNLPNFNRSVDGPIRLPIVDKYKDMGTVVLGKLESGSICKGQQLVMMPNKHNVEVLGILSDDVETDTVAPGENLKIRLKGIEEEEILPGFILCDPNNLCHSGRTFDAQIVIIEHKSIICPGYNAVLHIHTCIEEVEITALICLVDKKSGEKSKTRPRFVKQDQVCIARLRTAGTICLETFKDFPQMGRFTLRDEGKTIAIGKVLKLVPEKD
T1 sequence (Q96SW2 whole entry): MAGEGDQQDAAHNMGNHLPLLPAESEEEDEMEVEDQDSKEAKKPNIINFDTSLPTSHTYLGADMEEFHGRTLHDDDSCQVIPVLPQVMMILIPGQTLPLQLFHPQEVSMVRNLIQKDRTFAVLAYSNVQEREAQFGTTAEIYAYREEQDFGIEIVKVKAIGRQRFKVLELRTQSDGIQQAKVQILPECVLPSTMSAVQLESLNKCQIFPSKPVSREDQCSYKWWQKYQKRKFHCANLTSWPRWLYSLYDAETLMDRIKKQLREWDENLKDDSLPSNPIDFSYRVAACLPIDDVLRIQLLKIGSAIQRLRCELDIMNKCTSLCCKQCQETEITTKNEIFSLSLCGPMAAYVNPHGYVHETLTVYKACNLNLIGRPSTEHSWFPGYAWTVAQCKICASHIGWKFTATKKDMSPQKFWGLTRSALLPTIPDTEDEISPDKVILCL
T1 sequence (Q16531 whole entry partner): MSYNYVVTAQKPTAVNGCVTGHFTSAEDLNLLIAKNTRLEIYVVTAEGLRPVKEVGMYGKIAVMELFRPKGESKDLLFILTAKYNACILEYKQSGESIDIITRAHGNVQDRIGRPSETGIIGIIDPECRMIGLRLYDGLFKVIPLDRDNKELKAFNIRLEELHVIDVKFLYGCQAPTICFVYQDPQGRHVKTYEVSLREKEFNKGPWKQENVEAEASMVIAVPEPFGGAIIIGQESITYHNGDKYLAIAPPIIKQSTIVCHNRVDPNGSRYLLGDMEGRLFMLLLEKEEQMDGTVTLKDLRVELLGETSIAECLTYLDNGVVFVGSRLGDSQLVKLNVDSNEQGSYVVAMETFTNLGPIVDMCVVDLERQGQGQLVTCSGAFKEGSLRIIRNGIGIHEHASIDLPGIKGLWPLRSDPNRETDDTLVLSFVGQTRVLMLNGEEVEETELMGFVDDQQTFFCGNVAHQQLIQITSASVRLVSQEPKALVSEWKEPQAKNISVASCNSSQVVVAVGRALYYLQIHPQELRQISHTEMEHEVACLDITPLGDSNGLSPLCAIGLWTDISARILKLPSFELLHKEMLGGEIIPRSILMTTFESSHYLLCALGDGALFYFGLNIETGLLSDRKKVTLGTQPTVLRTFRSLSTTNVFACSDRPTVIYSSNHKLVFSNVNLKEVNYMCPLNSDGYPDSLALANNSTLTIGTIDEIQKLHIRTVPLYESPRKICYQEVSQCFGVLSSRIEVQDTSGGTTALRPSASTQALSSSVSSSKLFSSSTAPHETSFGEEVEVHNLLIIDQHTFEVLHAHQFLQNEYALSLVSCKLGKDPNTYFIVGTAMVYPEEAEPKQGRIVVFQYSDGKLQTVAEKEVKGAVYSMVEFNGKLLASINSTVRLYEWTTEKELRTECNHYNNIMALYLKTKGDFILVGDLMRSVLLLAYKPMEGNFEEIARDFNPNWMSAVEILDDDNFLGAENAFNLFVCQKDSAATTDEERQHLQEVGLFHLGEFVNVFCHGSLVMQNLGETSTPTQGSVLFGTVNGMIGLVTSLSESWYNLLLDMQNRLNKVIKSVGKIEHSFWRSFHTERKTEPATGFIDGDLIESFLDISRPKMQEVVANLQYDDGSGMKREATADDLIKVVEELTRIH

Compound: C[C@]12C=CC(=O)N[C@@H]1CC[C@@H]1[C@@H]2CC[C@]2(C)[C@@H](C(=O)Nc3cccc(N[C@@H]4CCC[C@@H](Nc5cccc6c5C(=O)N(C5CCC(=O)NC5=O)C6=O)C4)c3)CC[C@@H]12 (stereo partly drawn) [C59, N-(3-(N—(N-(4-(2-(3-(2,6-dioxopiperidine))-isoindole-1,3-dione))-1R,3R-cyclohexanediamine))phenyl)-3-oxo-4-aza-5α-androst-1-ene-17β-carboxamide]
- downregulation of GSPT1 (eRF3a) protein (Western blot) (GSPT1 (eRF3a)): downregulation

Compound: C[C@]12C=CC(=O)N[C@@H]1CC[C@@H]1[C@@H]2CC[C@]2(C)[C@@H](C(=O)Nc3cccc(N[C@@H]4CCC[C@@H](Nc5cccc6c5C(=O)N([C@H]5CCC(=O)NC5=O)C6=O)C4)c3)CC[C@@H]12 [C63, N-(3-(N—(N-(4-(2-(3S-(2,6-dioxopiperidine))-isoindole-1,3-dione))-1R,3R-cyclohexanediamine))phenyl)-3-oxo-4-aza-5α-androst-1-ene-17β-carboxamide]
- inhibition at 64 pM (C-33 A cells; 0.000064 μM): 21.5%
- inhibition at 0.00032 µM (C-33 A cells; 0.000320 μM): 15.9%
- inhibition at 0.0016 µM (C-33 A cells; 0.001600 μM): 25.4%
- inhibition at 0.008 µM (C-33 A cells; 0.008000 μM): 35.5%
- inhibition at 0.04 µM (C-33 A cells; 0.040000 μM): 48.3%
- inhibition at 0.2 µM (C-33 A cells; 0.200000 μM): 56.7%
- inhibition at 1 µM (C-33 A cells; 1.000000 μM): 63.9%
- inhibition at 5 µM (C-33 A cells; 5.000000 μM): 72.3%
- inhibition at 64 pM (SNU-1 cells; 0.000064 μM): 10.2%
- inhibition at 0.00032 µM (SNU-1 cells; 0.000320 μM): 28.9%
- inhibition at 0.0016 µM (SNU-1 cells; 0.001600 μM): 65.1%
- inhibition at 0.008 µM (SNU-1 cells; 0.008000 μM): 75.2%
- inhibition at 0.04 µM (SNU-1 cells; 0.040000 μM): 82.7%
- inhibition at 0.2 µM (SNU-1 cells; 0.200000 μM): 82%
- inhibition at 1 µM (SNU-1 cells; 1.000000 μM): 80.9%
- inhibition at 5 µM (SNU-1 cells; 5.000000 μM): 79.9%
- inhibition at 64 pM (DLD-1 cells; 0.000064 μM): 0.83%
- inhibition at 0.00032 µM (DLD-1 cells; 0.000320 μM): 7.21%
- inhibition at 0.0016 µM (DLD-1 cells; 0.001600 μM): 40.5%
- inhibition at 0.008 µM (DLD-1 cells; 0.008000 μM): 67.5%
- inhibition at 0.04 µM (DLD-1 cells; 0.040000 μM): 76.3%
- inhibition at 0.2 µM (DLD-1 cells; 0.200000 μM): 78.3%
- inhibition at 1 µM (DLD-1 cells; 1.000000 μM): 79.7%
- inhibition at 5 µM (DLD-1 cells; 5.000000 μM): 83.1%

From patent publication US20250213701A1, “MEDICAMENT FOR TREATING HUMAN TUMOR BASED ON ERF3A-TARGETING PROTEOLYSIS MECHANISM” (SUZHOU DEGEN BIO-MEDICAL CO., LTD., priority 2022, published 2025)
